{"source": "patent US3975421A", "about": "“15-Substituted 11α-cyano-prostaglandins and related compounds” (American Home Products Corporation, priority 1974, dated 1976)", "test_system": "adjuvant-induced arthritis in rats", "test": "adjuvant-induced arthritis in rats, per cent inhibition of paw swelling", "assay_type": "in vivo, rat", "conditions": "0.5 mg/kg s.c. daily for sixteen days, male rats", "text": "In using the compounds of the invention to produce antiinflammatory effects in warm-blooded animals, they may be administered subcutaneously. The particular dosage to obtain the antiinflammatory effect will vary with the particular compound employed and the degree of antiinflammatory response desired. The antiinflammatory response produced upon subcutaneous administration can be observed by the method described by Newbould, B. B. in Brit. J. Pharm. Chemoth., 21, 127 (1963) and Rosenthale, M. E., and Nagra, C. L. in Proc. Soc. Exp. Biol. and Med., 125, 149 (1967). In this procedure, adjuvant-induced arthritis is induced in rats by injection of dead mycobacteria into the hind footpad. The test compound is administered subcutaneously daily for sixteen consecutive days beginning with the day of injection. The injected foot swells rapidly during the first 4 to 6 days. Thereafter, the swelling subsides until the 8th day, and then it resumes. About 4 to 10 days after injection, the other hind paw (un-injected) becomes swollen and other inflammatory nodules may be found in the ear and tail. The swelling of the injected paw at day 4 is taken as an indication of an acute inflammatory response. The swelling of the same paw at day 16 is taken as a delayed inflammatory response. The swelling of the other hind paw at day 16 is taken as a delayed hypersensitivity reaction. Active antiinflammatory compounds reduce the swelling in either the acute and/or the delayed phases. […] The percent protection against swelling, as compared to non-treated controls, is calculated and is used as a measure of antiinflammatory activity.\nMale rats are randomly dispersed into groups. […] On day 4, the volume of the injected (right) foot is measured by means of a mercury plethysmograph. On day 16, the volumes of both the injected, right foot and the left hind foot are measured. The ability of the test compound to protect against acute and delayed swelling is measured by calculating the per cent decrease in volume of the test animals as compared to controls. […]", "data": [{"molecule": "CCCCCC(C)(O)/C=C/[C@H]1[C@H](C#N)CC(O)[C@@H]1CCCCCCC(=O)O", "note": "(stereo partly drawn) [3α-cyano-5(RS)-hydroxy-2β-[(3RS)-3-hydroxy-3-methyl-trans-1-octenyl]-1α-cyclopentaneheptanoic acid]", "values": [{"measurement": "% Inhibition of Swelling, Day 4, Rt. Paw", "setting": "injected right paw, day 4 (acute)", "value": 25, "unit": "%"}, {"measurement": "% Inhibition of Swelling, Day 16, Rt. Paw", "setting": "injected right paw, day 16 (delayed)", "value": 31, "unit": "%"}, {"measurement": "% Inhibition of Swelling, Day 16, Left Paw", "setting": "un-injected left paw, day 16 (delayed hypersensitivity)", "value": 35, "unit": "%"}]}]}
